From ChEMBL document CHEMBL1147313, “Abrusosides A-D, four novel sweet-tasting triterpene glycosides from the leaves of Abrus precatorius” (J Nat Prod, 1989)

tested on: Mus musculus; assay: Acute toxicity in Swiss-Webster mouse at 1 g/kg, po; format: organism-based; conditions: in vivo, 1000 mg/kg

Q: Which Activity does the source give for CC1=CC[C@@H]([C@@H](C)[C@H]2CC[C@@]3(C)[C@@H]4CC[C@H]5[C@](C)(C(=O)O)[C@@H](O[C@@H]6O[C@H](CO)[C@@H](O)[C@H](O)[C@H]6O[C@@H]6O[C@H](CO)[C@@H](O)[C@H](O)[C@H]6O)CC[C@@]56C[C@@]46CC[C@]23C)OC1=O [ABRUSOSIDE C] here?
A: Non-toxic

Q: Which Activity does the source give for CC1=CC[C@@H]([C@@H](C)[C@H]2CC[C@@]3(C)[C@@H]4CC[C@H]5[C@](C)(C(=O)O)[C@@H](O[C@@H]6O[C@H](CO)[C@@H](O)[C@H](O)[C@H]6O[C@@H]6O[C@H](C(=O)O)[C@@H](O)[C@H](O)[C@H]6O)CC[C@@]56C[C@@]46CC[C@]23C)OC1=O [ABRUSOSIDE D] here?
A: Non-toxic

Q: For CC1=CC[C@@H]([C@@H](C)[C@H]2CC[C@@]3(C)[C@@H]4CC[C@H]5[C@](C)(C(=O)O)[C@@H](O[C@@H]6O[C@H](CO)[C@@H](O)[C@H](O)[C@H]6O)CC[C@@]56C[C@@]46CC[C@]23C)OC1=O [ABRUSOSIDE A], which Activity is on record?
A: Non-toxic

Q: Which Activity does the source give for COC(=O)[C@H]1O[C@@H](O[C@H]2[C@H](O[C@H]3CC[C@]45C[C@]46CC[C@]4(C)[C@@H]([C@H](C)[C@@H]7CC=C(C)C(=O)O7)CC[C@@]4(C)[C@@H]6CC[C@H]5[C@]3(C)C(=O)O)O[C@H](CO)[C@@H](O)[C@@H]2O)[C@H](O)[C@@H](O)[C@@H]1O [ABRUSOSIDE B] here?
A: Non-toxic
